{
  "source": "patent US20130191934A1",
  "about": "“TREATMENT OF SYMPTOMS ASSOCIATED WITH MENOPAUSE” (INDIANA UNIVERSITY RESEARCH AND TECHNOLOGY CORPORA, priority 2010, published 2013)",
  "key": {"[1]": {"settings": "under investigation for insomnia; cited from earlier work"}, "[2]": {"test_system": "ORX1 and ORX2 receptors", "settings": "cited from earlier work"}, "[3]": {"test_system": "OVEX'ed rats", "settings": "cited from earlier work; for anxiety behaviors in the elevated plus maze (EPM) and open field tests (OFT): OVEX'ed rats; for block of the anxiety induced by OVEXing a female rat: daily s.c.: E2 0.25 mg/kg, DPN 1.0 mg/kg, PPT 1.0 mg/kg, Walf et al., 2010"}, "[4]": {"test_system": "dorsomedial hypothalamus (DMH) of anesthetized rat", "test": "BMI microinjection into the DMH of anesthetized rats", "format": "in vivo", "settings": "30 mg/kg i.p.; BMI 20 pmol/50 nL into DMH; FIG. 2; listed as SB334861", "procedure": "FIG. 2 Continuous and simultaneous measurement of blood pressure (top panel), heart rate (middle panel), and core body temperature (bottom panel) in an isoflurane anesthetized rat after identical microinjections of BMI (20 pmol/50 nL) into the DMH (time marks 1 and 3) before and after systemic administration of the orexin-1 receptor antagonist SB334861 (30 mg/kg i.p.; time mark 2).\nAs disclosed herein, experiments were conducted to determine whether an orexin-1 receptor antagonist (SB334861) or an orexin-2 receptor antagonist (TCSOX229) could attenuate the physiologic responses to chemical stimulation of the DMH. Chemical stimulation or disinhibition of neurons in the region of the dorsomedial hypothalamus (DMH) was conducted using the GABAA receptor antagonist bicuculline methiodide (BMI). To test orexin inhibitors ability to attenuate the BMI stimulated response, BMI was microinjected (20 pmol/50 nL) into the DMH of urethane-anesthetized rats both before and after systemic administration of the orexin inhibitor, and the responses were monitored."}, "[5]": {"test_system": "female ovariectomized, or sham-OVEX control, rats", "test": "Hypercapnia (20% CO2) challenge, tail skin temperature in OVEX rats", "format": "in vivo, rat", "settings": "30 mg/kg pretreatment", "source_text": "Hypercapnia model: There is also evidence that altered respiration patterns may trigger hot flashes whereas paced respiration may alleviate hot flash incidence and intensity. Increased or decreased respiration activity alters blood CO2/pH levels, and a hypersensitivity to CO2/pH may be present in conditions where estrogen activity is very low."}, "[6]": {"settings": "30 mg/kg intraperitoneal; cited from earlier work"}, "[7]": {"test_system": "adult female rats (OVEX or tamoxifen)", "test": "Open field anxiety test in tamoxifen-treated or ovariectomized female rats", "format": "in vivo, rat", "settings": "for anxiety-like behavior (time spent in center of open field) in OVEX rats: 30 mg/kg i.p. 30 min prior to testing, OVEX female rats, FIG. 3B", "procedure": "FIG. 3A & 3B are bar graphs showing the effects of subcutaneously injecting adult female rats with 3 days of vehicles (10% DMSO, 90% sesame oil) or 10 mg/kg tamaoxifen (a nonselective estrogen receptor antagonist) on time spent in the center of an open field. * represents p,0.05 with unpaired t-test. n=6/group. […] Bars represent mean and error bars represent SEM. * represents p,0.05 Mann Whitney U test following an ANOVA f(3,35)=2.9, p=0.048.\nFurthermore, experiments were conducted to investigate the impact of lowering estrogen activity by either administering tamoxifen or ovariectomizing rats."}, "[8]": {"test_system": "panic-prone rats", "test": "Sodium lactate challenge in panic-prone (l-allylglycine) rats", "format": "in vivo, rat", "settings": "for anxiety-like responses (social interaction duration) after sodium lactate: 30 mg/kg i.p. before 15 min i.v. 0.5M sodium lactate, FIG. 1b; for lactate induced increases in core body temperature / lactate induced increases in heart rate: 30 mg/kg i.p.; for lactate induced increases in core body temperature: FIG. 1c; for lactate induced increases in heart rate: FIG. 1d", "source_text": "Panic disorder is associated with disruption of central inhibitory gamma-aminobutyric acid (GABAergic) tone, and may contribute to panic attacks which are consistently provoked by ordinarily mild physical stressors such as mild osmotic disturbances (e.g., intravenous sodium lactate challenges).\nOrexin/hypocretin producing neurons are almost exclusive to dorsomedial hypothalamus and adjacent lateral hypothalamus, and play a critical role in maintaining wakefulness, vigilance and central sympathetic mobilization, which are key components of panic and anxiety. Experiments were conducted to investigate whether the administration of either a systemic orexin 1 antagonist or silencing the hypothalamic orexin gene product with RNA interference could block lactate-induced panic responses."}, "[9]": {"test_system": "menopausal women", "settings": "cited from earlier work"}, "[10]": {"test_system": "female ovariectomized rats", "test": "Yohimbine challenge, tail skin and core body temperature in OVEX rats", "format": "in vivo, rat", "settings": "5 mg/kg i.p.", "procedure": "(§1) FIG. 5A & 5B are graphs showing the effects of yohimbine on cellular responses. […] Black and gray outlined bars respectively represent c-FOS/ORX double and total ORX-ir labeled neurons in the hypothalamus. *Mann-whiney U=1.5, p=0.001. […] Treatment by time effect F(89,267)=2.7, p<0.001.\nTo objectively measure “hot flash” (assessed by tail temp) related activity in female OVEX rats, magnetically activated radiotelemetry probes (dimensions: 3.5 cc volume with 0.05° C. resolution) were implanted subcutaneously under the skin on the back of rat. The probe has 2 leads, each with an ˜1 cm long temp sensor that can be implanted in the tail and into the abdominal cavity to respectively measure skin and core body temp (as well as general ambulatory activity) in freely moving rats for extended periods. Recently we used the dual thermistor probes and were able to replicate previous findings that tail temp decreases during active phase in sham-OVEX rats, but this decrease is blunted in OVEX rats (FIG. 4B).\n(§2) Conversely, administering intravenous infusions of yohimbine (alpha2-adrenergic autoreceptor antagonist) to symptomatic, but not asymptomatic, menopausal women provokes “hot flashes” (Freedman et al, Obstet Gynecol, 1990. 76(4): p. 573-8). […] A dramatic drop in core body temp also immediately follows this, which also occurs in women following the onset of a hot flash."}, "[11]": {"test_system": "ORX-ir neurons", "test": "c-Fos induction in ORX-ir neurons after yohimbine", "format": "in vivo, rat", "settings": "5 mg/kg i.p.; male rats; FIG. 5A", "source_text": "as §1, §2"}, "[12]": {"settings": "OVEX rats, 5 min 20% CO2, FIG. 6B"}, "[13]": {"settings": "listed as orexin 1 receptor antagonist"}},
  "note": "“Also recorded” adds a separate entry of the source.",
  "data": [
    {"smiles": "CNC(=O)[C@@H](c1ccccc1)N1CCc2cc(OC)c(OC)cc2[C@@H]1CCc1ccc(C(F)(F)F)cc1", "note": "[Almorexant]", "values": [
      {"measurement": "safety and side effects in phase III trials", "setting": "[1]", "value": "safe, have few side effects"},
      {"measurement": "mode of orexin receptor antagonism", "setting": "[2]", "value": "competitive, dual ORX1 and ORX2 receptor antagonists"}
    ]},
    {"smiles": "N#CC(Cc1ccc(O)cc1)c1ccc(O)cc1", "note": "(stereo not drawn) [DPN, diarylpropionitrile]", "values": [
      {"measurement": "anxiety behaviors in the elevated plus maze (EPM) and open field tests (OFT)", "setting": "[3]", "value": "decreased anxiety behaviors"},
      {"measurement": "block of the anxiety induced by OVEXing a female rat", "setting": "[3]", "value": "block the anxiety"}
    ]},
    {"smiles": "C[C@]12CC[C@@H]3c4ccc(O)cc4CC[C@H]3[C@@H]1CC[C@@H]2O", "note": "[E2, 17-β-estradiol]", "values": [
      {"measurement": "anxiety behaviors in the elevated plus maze (EPM) and open field tests (OFT)", "setting": "[3]", "value": "decreased anxiety behaviors"},
      {"measurement": "block of the anxiety induced by OVEXing a female rat", "setting": "[3]", "value": "block the anxiety"}
    ]},
    {"smiles": "Cc1ccc(-n2nccn2)c(C(=O)N2CCN(c3nc4cc(Cl)ccc4o3)CC[C@H]2C)c1", "note": "[MK4305]", "values": [
      {"measurement": "safety and side effects in phase III trials", "setting": "[1]", "value": "safe, have few side effects"},
      {"measurement": "mode of orexin receptor antagonism", "setting": "[2]", "value": "competitive, dual ORX1 and ORX2 receptor antagonists"}
    ]},
    {"smiles": "CCCc1c(-c2ccc(O)cc2)nn(-c2ccc(O)cc2)c1-c1ccc(O)cc1", "note": "[PPT, Tris(4-hydroxyphenyl)-4-propyl-1Hpyrazole]", "values": [
      {"measurement": "anxiety behaviors in the elevated plus maze (EPM) and open field tests (OFT)", "setting": "[3]", "value": "increase anxiety behaviors"},
      {"measurement": "block of the anxiety induced by OVEXing a female rat", "setting": "[3]", "value": "not"}
    ]},
    {"smiles": "Cc1nc2ccc(NC(=O)Nc3ccnc4cccnc34)cc2o1", "note": "[SB334867, 1-(2-methylbenzoxazol-6-yl)-3-[1,5]naphthyridin-4-yl urea]", "values": [
      {"measurement": "BMI-evoked increase in blood pressure", "setting": "[4]", "value": "significant attenuation"},
      {"measurement": "BMI-evoked increase in core body temperature", "setting": "[4]", "value": "significant attenuation"},
      {"measurement": "BMI-evoked increase in heart rate", "setting": "[4]", "value": "significant attenuation"},
      {"measurement": "intensity of the hot flash (tail skin temperature) after 20% CO2", "setting": "[5]; [12]", "value": "reduces the intensity"},
      {"measurement": "onset of the hot flash (tail skin temperature) after 20% CO2", "setting": "[5]; [12]", "value": "delays the onset"},
      {"measurement": "baseline levels of tail temp in controls", "setting": "[5]; sham-OVEX controls", "value": "reduced baseline levels of tail temp"},
      {"measurement": "crossing of blood brain barrier", "setting": "[6]", "value": "crosses blood brain barrier"},
      {"measurement": "duration of central activity", "setting": "[6]", "value": "> 4", "unit": "h"},
      {"measurement": "anxiety-like behavior (time spent in center of open field) in OVEX rats", "setting": "[7]", "value": "reverses anxiogenic effects"},
      {"measurement": "anxiety-like behavior (time spent in center of open field) in OVEX rats", "setting": "[7]; listed as ORX 1 receptor antagonist", "value": "reverse the anxiogenic effects of OVEX"},
      {"measurement": "anxiety-like responses (social interaction duration) after sodium lactate", "setting": "[8]", "value": "Blocks; also recorded: attenuated"},
      {"measurement": "anxiety-like responses (social interaction duration) after sodium lactate", "setting": "[8]; [13]", "value": "blocks"},
      {"measurement": "lactate induced increases in core body temperature", "setting": "[8]", "value": "block; also recorded: attenuated"},
      {"measurement": "lactate induced increases in core body temperature", "setting": "[8]; [13]", "value": "blocks"},
      {"measurement": "lactate induced increases in heart rate", "setting": "[8]", "value": "attenuated"},
      {"measurement": "lactate induced increases in heart rate", "setting": "[8]; [13]", "value": "blocks"}
    ]},
    {"smiles": "Cc1nnc2n1-c1ccc(Cl)cc1C(c1ccccc1)=NC2", "note": "[alprazolam]", "values": [
      {"measurement": "lactate-induced responses versus vehicle treated groups (Fisher's LSD, p<0.05)", "setting": "[8]; alprazolam 3 mg/kg i.p., FIG. 1", "value": "significant differences"}
    ]},
    {"smiles": "Clc1cccc(Cl)c1N=C1NCCN1", "note": "[clonidine]", "values": [
      {"measurement": "incidence of hot flashes in menopausal women", "setting": "[9]; Freedman et al, 1990", "value": "reduce the incidence"}
    ]},
    {"smiles": "CC/C(=C(\\c1ccccc1)c1ccc(OCCN(C)C)cc1)c1ccccc1", "note": "[tamoxifen]", "values": [
      {"measurement": "anxiety-like behavior (time spent in center of open field) compared to controls", "setting": "[7]; tamoxifen 10 mg/kg s.c., 3 days, adult female rats, FIG. 3A", "value": "increased anxiety-like behavior"}
    ]},
    {"smiles": "COC(=O)[C@@H]1[C@H]2C[C@H]3c4[nH]c5ccccc5c4CCN3C[C@@H]2CC[C@@H]1O", "note": "[yohimbine]", "values": [
      {"measurement": "provocation of hot flashes", "setting": "[9]; intravenous infusions, symptomatic, but not asymptomatic, menopausal women", "value": "provokes"},
      {"measurement": "tail skin temperature", "setting": "[10]; female OVEX vs sham-OVEX rats, FIG. 5B", "value": "rapidly increase tail skin temp in female OVEX, but not sham OVEX control rats"},
      {"measurement": "core body temp following tail skin temp increase", "setting": "[10]; yohimbine challenge", "value": "dramatic drop"},
      {"measurement": "cellular responses (c-Fos induction) in ORX neurons", "setting": "[11]", "value": "increase cellular activity in ORX neurons"}
    ]}
  ]
}
